Measured values from patent US7320806B2, “Compositions and methods for treating NIDDM and other conditions and disorders associated with AMPK regulation” (priority 2003, dated 2008).
Entries after “also recorded” stand apart in the source; their conditions may differ.

Key:
hippocampal neurons = conditions: glucose deprivation, chemical hypoxia, glutamate, amyloid beta-peptide; cited from earlier work
[1] = chronic administration; cited from earlier work
astrocytes = conditions: incubation of astrocytes; cited from earlier work
AMPK = conditions: cited from earlier work
3T3-L1 adipocytes = conditions: added at an early phase of differentiation; cited from earlier work
[2] = system: rat epitrochlearis muscles; conditions: 30 microU/ml insulin, treated 3.5 h previously; cited from earlier work
[3] = administered before ischemia; cited from earlier work
L6 muscle cells = experiment: glucose uptake (2-NBDG) in L6 myotubes; type: cell-based
Method: The permeate portion of GMM was tested for glucose uptake in L6 muscle cells. L6 cells were grown as monolayers in Dulbecco's modified Eagle's medium (DMEM) containing 1 mM glutamine, 1 mM pyruvate and 25 mM glucose. The medium was supplemented with 5% fetal calf serum (FCS). Experiments were undertaken in 48-well plates seeded from pre-confluent flasks with 50 000 cells per well. The cells were grown to confluence and the medium was changed to DMEM containing 0.5% FCS and 2.5 mM glucose (L6 Myo Medium) for at least 76 hrs to induce differentiation of L6 cells and formation of L6 myotubes. Myotubes were then incubated with test substances for 30 minutes—Protocol SMM, or in Dulbecco's PBS supplemented with 20 mM Hepes and 2 mM glucose without serum—Serum-free Medium (SFM) Protocol as described by Fryer et al. (Activation of glucose transport by AMP-activated protein kinase via stimulation of Nitric oxide synthase, Diabetes, 49(12), 1978-85, 2000, Fryer LGD, et al, herein incorporated by reference in its entirety.).
Next, 30 uM of 2-NBDG was added for 2 minutes at 22 C. Subsequently, cell culture medium was removed and cells were washed twice with cold DPBS. Then, cells were lysed in 0.5% SDS. Fluorescence was measured at 466/542 nm (excitation/emission) using 100 ul of cell lysate in 2 ml of water.
Cells were cultured, and treated in L6 Myo Medium (SSM)—SSM Protocol or in serum-free medium (SFM—DPBS containing 20 mM Hepes, 2 mM glucose)—SFM Protocl as described by Fryer et al. Glucose uptake was measured by adding 30 uM of 2-NBDG for 2′ at 22 C. Experiments were performed in duplicates.
L-NMMA has been used in the experiment to verify whether GMM-induced glucose transport in L6 cells is or is not inhibited by NOS inhibitors, thus mimicking AICAR-induced mechanism of increased glucose transport. […]
In FIG. 14, permeate cells were tested to determine whether permeate-induced glucose uptake could be inhibited by L-NMMA at the same concentration as that used for inhibition of the AICA effect on glucose uptake. […] Glucose uptake was measured at 22 C for 2 minutes.

AMPK alpha2 = conditions: treatment for 10 weeks; cited from earlier work

NC(=O)c1ncn([C@@H]2O[C@H](COP(=O)(O)O)[C@@H](O)[C@H]2O)c1N [AICAR, 5′-aminoimidazole 4-carboxamide 1-ribonucleotide]
neuronal death (hippocampal neurons): protected hippocampal neurons against death
GLUT4 protein expression [1]: enhance
HDL cholesterol levels [1]: increased
fasting concentrations of glucose and insulin [1]: decreased
lowering of systolic blood pressure [1]: 14.6+/−4.3 mmHg
oral glucose tolerance test [1]: normalized
plasma triglyceride levels [1]: significantly reduced
ketogenesis from palmitate and carnitine palmitoyltransferase I (astrocytes): stimulate
increase in AMPK activity over the resting level (AMPK): two- to three-fold increase
differentiation of 3T3-L1 adipocytes (3T3-L1 adipocytes): inhibit the differentiation
increase in glucose transport in response to insulin versus untreated control muscles [2]: about twofold greater
energy metabolism and hepatic injury [3]: simulated the benefits of preconditioning

insulin
glucose uptake increase (L6 muscle cells; culture medium supplemented with 0.5% FCS (SSM)): 100-120%
glucose uptake increase (L6 muscle cells; serum-free medium (DPBS)): 40-50%

CN(C)C(=N)N=C(N)N [Metformin, metformin]
AMPK alpha2 activity in the skeletal muscle (AMPK alpha2): significantly increased

CC(=O)O.CNC(=N)NCCC[C@H](N)C(=O)O [L-NMMA, NG-methyl-L-arginine, acetate salt]
effect on permeate/GMM-induced glucose uptake (L6 muscle cells; L-NMMA 300 uM, 30 minutes pre-treatment in DPBS, acetate salt): inhibits; also recorded: blocks
